The target of data set [1] is T1, ATRIA (Cavia porcellus, UniProt H0W3H1).
T1 construct: ATRIA; from tissue
Briefly: In vitro potency (pA2), beta-blocking, atria. In kind it is cell-based. The note with it: Table 3; atria; read-out: pA2 ATRIA (converted). Here is the method:
The in vitro potency (pA2), in vivo potency and duration of action (DOA) of the compounds of the present invention are recorded in Tables 2 to 4. These pharmacological activities were determined using the methods described in U.S. patent 4,582,855 issued Apr.

The nature of data set [2]: Ocular bioavailability in rabbits. The following applies: for Tmax: rabbit, topical or ocular. The format is in vivo, New Zealand White Rabbits. Here is the method:
The ocular bioavailability of Timolol and compound 1 (monopivaloyl ester prodrug of compound 2) was evaluated in New Zealand White Rabbits. Fifty μL of a solution of 0.25% Timolol or 0.5% compound 1 (both in the same vehicle) were administered onto the cornea of both eyes of 48 rabbits (24 rabbits/compound). At 5, 15, 30, 60, 120, 180, 240, and 360 minutes after dosing, 3 rabbits (6 eyes)/compound were killed. The cornea, aqueous humor (AH), iris-ciliary body complex (I-CBC) were quickly removed from the eyes, weighed and processed to determine tissue levels of Timolol or compound 1 and compound 2.

In data set [3] the test system is isoproterenol-induced changes in heart rate or diastolic blood pressure. The data set is described as follows: Effect on systemic beta-blockade upon topical administration (isoproterenol-induced changes in heart rate or diastolic blood pressure). In kind it is in vivo, Mongrel dogs. The note with it: for Diastolic blood pressure (DBP) / Heart rate (HR): Table 1, 0.5%. Here is the method:
Mongrel dogs were anesthetized and control readings were made at -45 and -30 minutes. Following the -30 minute reading, an infusion of isoproterenol (0.5 μg/kg/min) was begun and maintained during the course of the experiment. Two readings of pretreatment isoproterenol responses were made at […] and at zero minutes.
At zero minutes, a 50 μL sample of test compound was administered topically. […] Heart rate was obtained directly from the strip chart recording.

The mark [4] stands for this setting: 50 μL, 0.25% solution, single or repeated topical applications.
[5] abbreviates: 15 min post-treatment, isoproterenol infusion.
[6] abbreviates: 30 min post-treatment, isoproterenol infusion.
Setting [7] is: 45 min post-treatment, isoproterenol infusion.
[8] abbreviates: 60 min post-treatment (dose), isoproterenol infusion.
Where [9] appears, read: 75 min post-treatment, isoproterenol infusion.
Where [10] appears, read: 90 min post-treatment, isoproterenol infusion.
Setting [11] is: 105 min post-treatment, isoproterenol infusion.
[12] abbreviates: 120 min post-treatment (dose), isoproterenol infusion.
Setting [13] is: 135 min post-treatment, isoproterenol infusion.
Setting [14] is: 150 min post-treatment, isoproterenol infusion.
[15] abbreviates: 165 min post-treatment, isoproterenol infusion.
The mark [16] stands for this setting: 180 min post-treatment, isoproterenol infusion.
Where [17] appears, read: Table 1 summary, given as "down".

Molecules are shown by their SMILES. Where two headings read alike, the source gives them in different places.

This note sets out measurements from US4966914A, “Oculoselective beta-blockers as antiglaucoma agents” (E. I. Du Pont de Nemours and Company, priority 1988, dated 1990).

T1 sequence (H0W3H1 1-470): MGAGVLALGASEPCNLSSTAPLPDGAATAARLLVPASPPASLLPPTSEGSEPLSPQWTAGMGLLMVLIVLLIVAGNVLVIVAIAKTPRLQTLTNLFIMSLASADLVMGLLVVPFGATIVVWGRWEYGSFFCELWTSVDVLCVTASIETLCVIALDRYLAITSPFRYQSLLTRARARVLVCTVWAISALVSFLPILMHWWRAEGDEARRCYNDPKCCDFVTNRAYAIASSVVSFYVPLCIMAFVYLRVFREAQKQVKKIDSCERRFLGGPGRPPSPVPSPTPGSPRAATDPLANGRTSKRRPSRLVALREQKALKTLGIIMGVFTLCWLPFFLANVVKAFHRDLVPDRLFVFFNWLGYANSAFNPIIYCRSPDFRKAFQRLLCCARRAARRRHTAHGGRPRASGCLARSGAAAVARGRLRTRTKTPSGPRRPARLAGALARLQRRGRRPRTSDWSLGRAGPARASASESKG

As for `CC(C)(CNC(=O)C1CCOC1)NCC(O)COC(=O)c1ccc(O)c(O)c1` (stereo not drawn), in data set [1], the Kb is 0.00126 µM.

Regarding `CC(C)C(=O)NCC(C)(C)NCC(O)COC(=O)c1cc(O)c(O)cc1N` (stereo not drawn), in data set [1], the Kb is 0.0794 µM.

As to `COc1cc(O)c(O)cc1C(=O)OCC(O)CNC(C)(C)CNC(=O)C1CCCCC1` (stereo not drawn), in data set [1], the Kb was 0.0251 µM.

For `CCC(=O)NCC(C)(C)NCC(O)COC(=O)c1cc(O)c(O)cc1C` (stereo not drawn), the Kb in data set [1] is 0.01 µM.

As for `CCCC(=O)NCC(C)(C)NCC(O)COC(=O)c1cc(O)c(O)cc1C` (stereo not drawn), the Kb in data set [1] was 0.00631 µM.

In the case of `Cc1cc(O)c(O)cc1C(=O)OCC(O)CNC(C)(C)CNC(=O)C1CC1` (stereo not drawn), the Kb in data set [1] was 0.02 µM.

Regarding `Cc1cc(O)c(O)cc1C(=O)OCC(O)CNC(C)(C)CNC(=O)C1CCC1` (stereo not drawn), in data set [1], the Kb was 0.00501 µM.

As to `Cc1cc(O)c(O)cc1C(=O)OCC(O)CNC(C)(C)CNC(=O)c1ccccc1` (stereo not drawn), in data set [1], the Kb was 0.02 µM.

As to `Cc1cc(O)c(O)cc1C(=O)OCC(O)CNC(C)(C)CNC(=O)Cc1ccccc1` (stereo not drawn), in data set [1], the Kb was 0.1 µM.

In the case of `COc1ccccc1C(=O)NCC(C)(C)NCC(O)COC(=O)c1cc(O)c(O)cc1C` (stereo not drawn), in data set [1], the Kb is 0.398 µM.

`COc1ccc(C(=O)NCC(C)(C)NCC(O)COC(=O)c2cc(O)c(O)cc2C)cc1` (stereo not drawn): in data set [1], the Kb is 0.0316 µM.

For the molecule `CC(C)(CNC(=O)C1CCCCC1)NCC(O)COC(=O)c1ccc(O)c(O)c1` (stereo not drawn), the Kb in data set [1] is 0.00631 µM.

Regarding `Cc1cc(O)c(O)cc1C(=O)OCC(O)CNC(C)(C)CNC(=O)c1ccccc1F` (stereo not drawn), the Kb in data set [1] was 0.1 µM.

In the case of `Cc1cc(O)c(O)cc1C(=O)OCC(O)CNC(C)(C)CNC(=O)c1ccoc1` (stereo not drawn), the Kb in data set [1] is 0.0251 µM.

`Cc1cc(O)c(O)cc1C(=O)OCC(CNC(C)(C)CNC(=O)C1CCOC1)OC(=O)C(C)(C)C` (stereo not drawn) [Compound 1]: the “Absorption across the cornea” value in data set [2] (0.25% Timolol or 0.5% compound 1, topical) is listed as “rapidly absorbed across the cornea”. Further, in data set [2] (0.5% compound 1, topical), the “Metabolism of compound 1 to compound 2” value was “rapid metabolism of compound 1 to compound 2”. For the same molecule, the “AUC in AH relative to AUC of Timolol in AH” value in data set [2] (0.5% compound 1 vs 0.25% Timolol, greater than Timolol) was 3 ×. In addition, the “Detectability in I-CBC” value in data set [2] (I-CBC, 0.5% compound 1) is listed as “not detectable”. For the same molecule, the Tmax is 30 min in data set [2] (aqueous humor, AH, 0.25% Timolol or 0.5% compound 1, read-out: Time of peak level in aqueous humor (AH) (converted)) and 5 min in data set [2] (cornea, 0.25% Timolol or 0.5% compound 1, read-out: Time of peak level in cornea (converted)). Also, the “Effect on diastolic blood pressure response to isoproterenol” value in data set [3] (50 μL at 0.5 or 1.0% solution) is listed as “without any significant effect”; in data set [3] (setting [4]) it was “no effect”. Moreover, the “Systemic beta-blockade of isoproterenol-induced increase in heart rate” value in data set [3] (50 μL at 0.5 or 1.0% solution) is listed as “no significant systemic beta-blockade”. Also, the “Diastolic blood pressure response to isoproterenol” value in data set [3] (50 μL at 0.5 or 1.0% solution, from-to) is recorded as 58-63 mmHg. The “Effect on heart rate response to isoproterenol” value in data set [3] (setting [4]) is reported as “no effect”. Besides, the “Diastolic blood pressure (DBP)” value turned out to be 58 mmHg in data set [3] (0 min, ISO only); 56 mmHg in data set [3] (setting [5]); 55 mmHg in data set [3] (setting [6]); 54 mmHg in data set [3] (setting [7]); 55 mmHg in data set [3] (setting [8]); 55 mmHg in data set [3] (setting [9]). For the same molecule, the “Diastolic blood pressure (DBP)” value in data set [3] (setting [10]) is recorded as 56 mmHg; in data set [3] (setting [11]), 57 mmHg; in data set [3] (setting [12]), 59 mmHg; in data set [3] (setting [13]) it was 61 mmHg; in data set [3] (setting [14]) it was 60 mmHg; in data set [3] (setting [15]), 60 mmHg. Also, the “Diastolic blood pressure (DBP)” value came out at 63 mmHg in data set [3] (setting [16]) and 87 mmHg in data set [3] (-30 min, baseline). Further, the “Heart rate (HR)” value in data set [3] (0 min, ISO only) came out at 199 bpm; in data set [3] (setting [5]), 195 bpm; in data set [3] (setting [6]) it was 192 bpm; in data set [3] (setting [7]), 188 bpm; in data set [3] (setting [8]) it was 189 bpm; in data set [3] (setting [9]), 189 bpm. Moreover, the “Heart rate (HR)” value stood at 189 bpm in data set [3] (setting [10]); 190 bpm in data set [3] (setting [11]); 192 bpm in data set [3] (setting [12]); 192 bpm in data set [3] (setting [13]); 192 bpm in data set [3] (setting [14]); 192 bpm in data set [3] (setting [15]). Moreover, the “Heart rate (HR)” value was 193 bpm in data set [3] (setting [16]) and 143 bpm in data set [3] (-30 min, baseline). The “Summary: BP” value in data set [3] (Table 1 summary, from ISO only to end of experiment) was 58-63 mmHg. For the same molecule, the “Summary: BP change” value in data set [3] (setting [17]) was 5 mmHg. For the same molecule, the “Summary: HR change” value in data set [3] (setting [17]) is given as 6 bpm. For the same molecule, the “Systemic beta-blocking activity as compared to Timolol” value in data set [3] (conclusion in words) is “has systemic beta-blocking activity as compared to Timolol”. The “Selectivity of peripheral effects” value in data set [3] (high concentration, unlike Timolol) was “selective for beta-1 (heart rate) responses”.

With `Cc1cc(O)c(O)cc1C(=O)OCC(O)CNC(C)(C)CNC(=O)C1CCOC1` (stereo not drawn) [Compound 2], the “Area under the concentration time curve (AUC0-240'), AH” value in data set [2] (AH, 0-240 min, 0.25% Timolol or 0.5% compound 1) is recorded as 27,377 ng/100 μL/min. Further, the “Area under the concentration time curve (AUC0-240'), I-CBC” value in data set [2] (I-CBC, 0-240 min, 0.25% Timolol or 0.5% compound 1) is 2,981 ng/50 mg/min. For the same molecule, in data set [2] (cornea, 0-240 min, 0.25% Timolol or 0.5% compound 1), the “Area under the concentration time curve (AUC0-240'), cornea” value is listed as 95,789 ng/50 mg/min. In addition, the “Stability in rabbit ocular tissues” value in data set [2] (rabbit ocular tissues) is reported as “stable in rabbit ocular tissues”.

With `CC(=O)NCC(C)(C)NCC(O)COC(=O)c1cc(O)c(O)cc1C` (stereo not drawn) [Me CH3], the Kb in data set [1] is 0.0251 µM.

Take `Cc1cc(O)c(O)cc1C(=O)OCC(O)CNC(C)(C)CNC(N)=O` (stereo not drawn) [Me NH2]: in data set [1], the Kb was 0.00126 µM.

On to `COc1cc(O)c(O)cc1C(=O)OCC(O)CNC(C)(C)CNC(=O)C(C)C` (stereo not drawn) [drawing 30], for which the Kb in data set [1] is 0.0126 µM.

Take `CCOc1cc(O)c(O)cc1C(=O)OCC(O)CNC(C)(C)CNC(=O)C(C)C` (stereo not drawn) [drawing 32]: the Kb in data set [1] was 0.02 µM.
